Source: paper PMC5318895, “Inhibition of N1-Src kinase by a specific SH3 peptide ligand reveals a role for N1-Src in neurite elongation by L1-CAM” (Scientific Reports, 2017)

Columns and labels:
N1-Src [1] = assay: isoform specificity of N1-Src shRNA co-expressed with C-, N1- or N2-Src in COS7 cells; type: cell-based, rat; settings: COS7, co-transfected 72 h with C-, N1- or N2-Src-FLAG; anti-FLAG immunoblot
hippocampal neurons = assay: neurite growth of hippocampal neurons after N1-Src shRNA knockdown; type: cell-based, rat; settings: pSUPER-GFP shRNA, 48 h and 96 h post-transfection, versus empty plasmid or non-targeting shRNA, n = 90 neurons, Kruskal-Wallis
Experimental: We next took advantage of the specificity of PDN1 to investigate the role of endogenous N1-Src in neurite outgrowth in cultured neurons. CFP-PDN1 or -PDN1(P5A) was transfected into 1 DIV CGNs and their morphology analysed after […]. During CGN development in vivo and immediately after plating in vitro, the cells grow two processes before polarising to yield a single axon and the second process retracts to become a dendrite and further dendrites are initiated. The axon then extends further before bifurcating. […] To further confirm that N1-Src regulates neurite growth we employed an shRNA expressing plasmid (pSUPER-GFP) to knockdown N1-Src in neurons. […] The successful N1-Src shRNA plasmid was transfected into hippocampal neurons, and the length of the longest neurite in GFP-positive neurons was assessed at 48 h and 96 h post-transfection. […] Thus, perturbing N1-Src activity with PDN1 or knockdown of the protein produces the same neurite phenotype in primary neuronal cultures.
Figure 5 Knockdown of N1-Src phenocopies the action of PDN1 in cultured neurons. […] (c,d) Cultured hippocampal neurons transfected with pSUPER-GFP (control) or pSUPER-GFP encoding N1-Src specific shRNA were analysed for length of longest neurite at 48 or 96 h. […] Data were normalised to the 48 h control and plotted as mean ± SEM, n = 90 neurons, with 30 cells analysed per condition in 3 independent experiments. […]

C-Src SH3 domain = settings: cited from earlier work
From the text: The PDN1 consensus motif, RxPxxTxK, represents a novel SH3 ligand and lacks a canonical PxxP, thus confirming the six amino acid N1-Src splice insert has a dramatic effect on the structure of its SH3 domain. The ligand binding site in the majority of SH3 domains, including C-Src, comprises three pockets, two of which interact with the core xP motifs and one that adds specificity through binding flanking residues. […] Indeed, one of the few ...

N1-Src [2] = molecular target: T1, N1-Src (Rattus norvegicus, UniProt Q9WUD9); assay: in vitro kinase assay, N1-Src phosphorylation of GST-Y-PDN substrates; type: biochemical; design: His; made in house; host or cells: E. coli; settings: PDN1 fused to an ideal Src substrate
Experimental: Figure 1 Identification of a novel ligand consensus sequence for the N1-Src SH3 domain. (a) Schematic of the kinase assay used to validate the effect of potential SH3 domain ligands on the phosphorylation of an ideal tyrosine motif (Y in bold) located upstream of a 10 aa linker and 12 aa phage peptide. (b) GST-Y-PDN1–6 substrates at 0.3, 0.9, 2.8 or 8.3 μM were phosphorylated in vitro with 5 nM C- or N1-Src at 30 °C and the phosphorylation detected by anti-phosphotyrosine immunoblot. Immunoblots are representative of three independent experiments. (c) Alignment of the phage display peptides ranked by N1-Src selectivity derived from results in (b). Shaded residues represent the common consensus sequence. […] (e) GST-Y-PDN1 substrates with the indicated point mutations (see insert) at 8.3 μM were phosphorylated by 5 nM N1-Src and the extent of phosphorylation was measured by densitometry of phosphotyrosine immunoreactivity. […]
The PDN peptides were tested for specificity for the N1-Src SH3 domain using a kinase assay in which a GST fusion of an ideal Src substrate peptide (Y) and a putative SH3 ligand peptide can distinguish SH3 domain specificity (Fig. 1a). Based on our previous study, we chose a range of substrate concentrations at which an enhancement in phosphorylation by docking to canonical peptide ligands for the C-Src SH3 domain can be detected (8.3 μM and below)[12]. […]

N1-Src [3] = molecular target: T1, N1-Src; assay: inhibition of N1-Src phosphorylation of GST-Y by free soluble peptide; type: biochemical; design: His; made in house; host or cells: E. coli; settings: free soluble peptide titrated with 5 nM N1-Src and GST-Y; phosphotyrosine immunoblot densitometry; n = 3
Experimental: Previous studies have shown that soluble SH3 ligands can enhance Src family kinase activity in vitro[20][21]. […] This experiment raised the possibility that PDN1 could act as an N1-Src inhibitor in cells. […] We observed that COS7 cells transfected with N1-Src-FLAG underwent a striking change in morphology within 48 h (Fig. 3a). Similar to that previously observed in Xenopus epithelial cells, overexpression of the kinase induced the growth of neurite-like processes (Fig. 3b) and an approximate 35% reduction in area of the cell soma (Fig. 3c). […] Using cell morphology as a readout, we assessed the effect of CFP-PDN1 and PDN1(P5A) on N1-Src activity in cells. […] We also assessed the effect of PDN1 on N2-Src expressing cells because the first five amino acids of its SH3 insert are identical to that in N1-Src[3].
Figure 2 PDN1 inhibits N1-Src activity in vitro. GST-Y was incubated with 5 nM N1-Src and the indicated concentrations of either PDN1 or PDN1(P5A) and the extent of phosphorylation determined by densitometry of phosphotyrosine immunoreactivity. […]
Phosphorylation reactions were performed as previously described, prepared in kinase reaction buffer (100 mM Tris, 10 mM MgCl2, pH 7.5) and initiated by the addition of pre-warmed ATP (0.5 mM final concentration) and incubated at 30 °C for the indicated times. […] Due to the non-quantitative measurement of V, Vmax was not determined. […]

5′-GGAAGGTGGATGTCAGAGA-3′ (expressed or natural sequence; target site or template, no part of the molecule) [N1-Src shRNA]
isoform specificity of knockdown (N1-Src [1]): confirmed isoform specificity | inhibition of neurite growth (length of longest neurite) (hippocampal neurons): significant time-dependent inhibition of neurite growth

RSLRPLPPLPPRPPF [phage display ligand selected by the PI3-kinase SH3 domain]
binding to the C-Src SH3 domain (C-Src SH3 domain): did not bind the C-Src SH3 domain

WHRMPAYTAKYP [PDN1, 12mer peptide derived from a phage display screen of the N1-Src SH3 domain]
enhancement of substrate phosphorylation by N1-Src (N1-Src [2]): enhanced the specific in vitro phosphorylation of an ideal substrate by N1-Src | inhibition of GST-Y phosphorylation (N1-Src [3]): inhibited GST-Y phosphorylation in a dose dependent manner
